ChEMBL document CHEMBL1153497, “Development of antitubercular compounds based on a 4-quinolylhydrazone scaffold. Further structure-activity relationship studies” (Bioorg Med Chem, 2009)
≈ marks a conversion by molar mass, not a printed value. Where “and” joins values, the source holds several entries; their conditions need not be identical. Equal values may be shown once.

Columns and labels:
Vero [1] = test: Cytotoxicity against african green monkey Vero cells after 72 hrs by MTT assay; format: cell-based; settings: Chlorocebus sabaeus
[2] = Selectivity index, IC50 for african green monkey Vero cells to MIC for Mycobacterium tuberculosis H37Rv; format: functional
[3] = test system: Mycobacterium tuberculosis; test: Antitubercular activity against Mycobacterium tuberculosis H37Rv by microplate alamar blue assay; format: functional
[4] = test system: Mycobacterium tuberculosis; test: Antitubercular activity against Mycobacterium tuberculosis H37Rv at 6.25 ug/mL by broth microdilution method; format: functional
[5] = test system: Mycobacterium tuberculosis; test: Antitubercular activity against Mycobacterium tuberculosis H37Rv assessed as CFU treated on day 7 measured after 14 days; format: functional, organism-based
[6] = test system: Mycobacterium tuberculosis; test: Antitubercular activity against Mycobacterium tuberculosis isolate UC0804 by microplate alamar blue assay; format: functional
[7] = test system: Mycobacterium tuberculosis; test: Antitubercular activity against Mycobacterium tuberculosis isolate UC0802 by microplate alamar blue assay; format: functional
Vero [8] = test: Cytotoxicity against african green monkey Vero cells at > 2.5 ug/mL after 72 hrs by MTT assay; format: cell-based; settings: Chlorocebus sabaeus
[9] = test system: Mycobacterium tuberculosis; test: Antitubercular activity against Mycobacterium tuberculosis isolate UC0801 by microplate alamar blue assay; format: functional
[10] = test system: Mycobacterium tuberculosis; test: Antitubercular activity against Mycobacterium tuberculosis isolate UC0803 by microplate alamar blue assay; format: functional

| SMILES | MIC [3] | inhibition at 6.25 µg/mL [4] | further results |
| --- | --- | --- | --- |
| COc1ccc2nccc(N/N=C/C3CCCCC3)c2c1 | 11.1 µM | 99% | IC50 (Vero [1]): 5.03 µg/mL (≈ 17.8 µM); Selectivity Index [2]: 3.44 |
| COc1ccc2nccc(N/N=C/c3ccc(N(C)C)cc3)c2c1 | 19.5 µM | 100% |  |
| COc1ccc2c(N/N=C/c3ccnc4ccccc34)cc(C)nc2c1 | 4.6 µM | 100% |  |
| CCOc1ccc2c(N/N=C/c3ccc(OC)cc3)cc(C)nc2c1 |  | 20% |  |
| COc1cccc2c(N/N=C/c3ccc4ccccc4n3)ccnc12 | 4.8 µM | 99% | IC50 (Vero [1]): 1.68 µg/mL (≈ 5.12 µM); Selectivity Index [2]: 1.08 |
| Cc1cc(N/N=C/c2ccc(O)cc2)c2cc3c(cc2n1)OCO3 |  | 100% |  |
| Cc1cc(N/N=C/c2ccnc3ccccc23)c2cc3c(cc2n1)OCO3 |  | 100% |  |
| COc1ccc2c(N/N=C/c3ccc4c(c3)OCO4)ccnc2c1 | 9.7 µM | 100% |  |
| Cc1cc(N/N=C/C2CCCCC2)c2cc3c(cc2n1)OCO3 |  | 9% |  |
| COc1ccc2cc(/C=N/Nc3ccnc4cc(OC)ccc34)ccc2c1 | 0.6 µM | 100% | IC50 (Vero [1]): 0.211 µg/mL (≈ 0.59 µM); Selectivity Index [2]: 1.05 |
| COc1ccc2nc(C)cc(N/N=C/c3ccc(N(C)C)cc3)c2c1 | 9.4 µM | 100% |  |
| COc1ccc2ccccc2c1/C=N/Nc1cc(C)nc2cc3c(cc12)OCO3 |  | 100% |  |
| Cc1cc(N/N=C/c2ccccc2)c2cc3c(cc2n1)OCO3 | 2.6 µM and 0.5 µg/mL | 100% | Activity [5]: Dose-dependent effect; MIC [6]: 0.12 µg/mL (≈ 0.393 µM); MIC [7]: 1 µg/mL (≈ 3.28 µM); Activity (Vero [8]): Toxic; MIC [9]: 0.12 µg/mL (≈ 0.393 µM); MIC [10]: 0.25 µg/mL (≈ 0.819 µM) |
| CO[C@H]1/C=C/O[C@@]2(C)Oc3c(C)c(O)c4c(O)c(c(/C=N/N5CCN(C)CC5)c(O)c4c3C2=O)NC(=O)/C(C)=C\C=C\[C@H](C)[C@H](O)[C@@H](C)[C@@H](O)[C@@H](C)[C@H](OC(C)=O)[C@@H]1C [RIFAMPIN] | 0.037 µM |  |  |
| COc1cccc(/C=N/Nc2cc(C)nc3cc4c(cc23)OCO4)c1 | 9.3 µM | 100% |  |
| COc1ccc2c(N/N=C/c3ccc4ccccc4n3)ccnc2c1 | 9.5 µM | 99% |  |
| COc1cccc2c(N/N=C/c3ccc4c(c3)OCO4)cc(C)nc12 |  | 95% |  |
| COc1ccc2c(N/N=C/c3ccc(N(C)C)cc3)ccnc2c1 | 4.9 µM | 100% | IC50 (Vero [1]): 0.26 µg/mL (≈ 0.811 µM); Selectivity Index [2]: 0.17 |
| COc1ccc2c(N/N=C/c3ccc(O)cc3)ccnc2c1 | 5.3 µM | 100% | IC50 (Vero [1]): 3.66 µg/mL (≈ 12.5 µM); Selectivity Index [2]: 2.53 |
| COc1cccc2c(N/N=C/c3ccc(N(C)C)cc3)ccnc12 | 19.5 µM | 100% |  |

| SMILES | MIC [3] | inhibition at 6.25 µg/mL [4] | further results |
| --- | --- | --- | --- |
| COc1ccc(/C=N/Nc2ccnc3cc(OC)ccc23)cc1 | 9.8 µM | 100% |  |
| CCOc1ccc2c(N/N=C/c3ccncc3)ccnc2c1 |  | 26% |  |
| C(=N\Nc1ccnc2cc3c(cc12)OCO3)/C1CCCCC1 |  | 74% |  |
| COc1ccc2cc(/C=N/Nc3cc(C)nc4cc5c(cc34)OCO5)ccc2c1 |  | 100% |  |
| Cc1cc(N/N=C/c2ccc3ccccc3c2)c2cc3c(cc2n1)OCO3 |  | 100% |  |
| COc1ccc2c(N/N=C/c3ccc4ccccc4n3)cc(C)nc2c1 | 4.6 µM | 100% | IC50 (Vero [1]): 0.12 µg/mL (≈ 0.35 µM); Selectivity Index [2]: 0.08 |
| CCOc1ccc2c(N/N=C/c3ccc(OC)cc3)ccnc2c1 | 9.7 µM | 100% |  |
| COc1cccc2c(N/N=C/c3ccccc3)ccnc12 | 11.3 µM | 99% |  |
| CCOc1ccc2c(N/N=C/c3ccc4c(c3)OCO4)cc(C)nc2c1 | 9 µM | 98% |  |
| COc1ccc(/C=N/Nc2cc(C)nc3cc4c(cc23)OCO4)cc1OC |  | 100% |  |
| COc1cccc2c(N/N=C/c3cccc4ccccc34)cc(C)nc12 | 9.3 µM | 99% |  |
| COc1ccc(/C=N/Nc2ccnc3ccc(OC)cc23)cc1 | 10.2 µM | 100% |  |
| COc1ccc2c(N/N=C/c3ccc[nH]3)ccnc2c1 | 11.8 µM | 99% |  |
| Cc1cc(N/N=C/c2ccc(F)cc2)c2cc3c(cc2n1)OCO3 | 19.3 µM | 100% |  |
| COc1ccc(/C=N/Nc2cc(C)nc3cc(OC)ccc23)cc1 | 19.5 µM | 99% |  |
| Cc1cc(N/N=C/c2cccc(O)c2)c2cc3c(cc2n1)OCO3 |  | 100% |  |
| CCOc1ccc2c(N/N=C/c3ccc4c(c3)OCO4)ccnc2c1 |  | 48% |  |
| Cc1cc(N/N=C/c2ccccn2)c2cc3c(cc2n1)OCO3 |  | 74% |  |
| COc1ccc(/C=N/Nc2cc(C)nc3ccc(OC)cc23)cc1 | 4.8 µM | 100% |  |
| Cc1cc(N/N=C/c2ncc[nH]2)c2cc3c(cc2n1)OCO3 | 5.3 µg/mL | 100% | IC50 (Vero [1]): > 100 µg/mL; Selectivity Index [2]: >66 |

| SMILES | MIC [3] | inhibition at 6.25 µg/mL [4] | further results |
| --- | --- | --- | --- |
| COc1ccc2c(/C=N/Nc3ccnc4cc(OC)ccc34)ccnc2c1 | 2.2 µM | 100% |  |
| COc1ccc(/C=N/Nc2cc(C)nc3cc4c(cc23)OCO4)cc1 | 9.3 µM | 100% |  |
| NNC(=O)c1ccncc1 [ISONIAZID] | 0.36 µM and 0.05 µg/mL |  | MIC [6]: 0.05 µg/mL (≈ 0.365 µM); MIC [7]: 0.25 µg/mL (≈ 1.82 µM); MIC [9]: 0.05 µg/mL (≈ 0.365 µM); MIC [10]: 0.05 µg/mL (≈ 0.365 µM) |
| COc1ccc2c(N/N=C/c3cccc(O)c3)ccnc2c1 | 2.7 µM | 100% | IC50 (Vero [1]): 1.09 µg/mL (≈ 3.72 µM); Selectivity Index [2]: 1.59 |
| COc1ccc(/C=N/Nc2cc(C)nc3cc4c(cc23)OCO4)c2ccccc12 | 4 µM | 100% | IC50 (Vero [1]): 0.24 µg/mL (≈ 0.623 µM); Selectivity Index [2]: 0.15 |
| Cc1cc(N/N=C/c2ccc[nH]2)c2cc3c(cc2n1)OCO3 | 10.6 µM | 100% |  |
| COc1ccc2nccc(N/N=C/c3ccc4c(c3)OCO4)c2c1 | 2.4 µM | 100% |  |
| COc1cccc2c(N/N=C/c3ccc4ccccc4n3)cc(C)nc12 | 4.7 µM | 100% | IC50 (Vero [1]): 3.11 µg/mL (≈ 9.08 µM); Selectivity Index [2]: 1.99 |
| COc1ccc2nc(C)cc(N/N=C/c3ccc4c(c3)OCO4)c2c1 | 4.8 µM | 100% |  |
| COc1ccc2c(N/N=C/c3ccccc3)ccnc2c1 | 16.4 µM | 100% |  |
| COc1ccc(/C=N/Nc2ccnc3cc4c(cc23)OCO4)cc1 | 4.8 µM | 100% |  |
| Cc1cc(N/N=C/c2ccc3c(c2)OCO3)c2cc3c(cc2n1)OCO3 | 4.5 µM | 100% | IC50 (Vero [1]): 0.22 µg/mL (≈ 0.63 µM); Selectivity Index [2]: 0.14 |
| Cc1cc(N/N=C/c2ccncc2)c2cc3c(cc2n1)OCO3 |  | 87% |  |
| COc1cccc2c(N/N=C/c3ccnc4ccccc34)cc(C)nc12 | 9.1 µM | 98% |  |
| COc1cccc2c(N/N=C/c3cccc4ccccc34)ccnc12 |  | 100% |  |
| COc1ccc2c(N/N=C/c3ccnc4ccccc34)ccnc2c1 | 9.5 µM | 100% |  |
| CCOc1ccc2c(N/N=C/c3ccncc3)cc(C)nc2c1 |  | 78% |  |
| COc1cccc2c(N/N=C/c3ccc4c(c3)OCO4)ccnc12 |  | 31% |  |
| COc1ccc2c(N/N=C/c3ccc4ccccc4c3)ccnc2c1 | 0.6 µM | 100% | IC50 (Vero [1]): 0.454 µg/mL (≈ 1.39 µM); Selectivity Index [2]: 2.27 |
| CCN(CC)c1ccc(/C=N/Nc2cc(C)nc3cc4c(cc23)OCO4)cc1 | 8.3 µM | 100% |  |
